Test results taken from patent publication US9440964B2, “Pesticidal compositions and processes related thereto” (Dow AgroSciences LLC, priority 2011, dated 2016).
Read-outs that look alike come from different tables or passages of the source.

How the values were obtained:
BAW (Spodoptera exigua) = test: Bioassay on Beet Armyworm (BAW), 128-well diet tray; assay type: in vivo; conditions: Spodoptera exigua, 168 h, read-out: Rating BAW
Method: (§1) Certain molecules disclosed in this document were tested against BAW and CEW using procedures described in the following examples. In the reporting of the results, the “BAW & CEW Rating Table” was used (See Table Section).
Bioassays on BAW (Spodoptera exigua)
(§2) Trays were covered with a clear self-adhesive cover and held at 25° C., 14:10 light-dark for five to seven days. Percent mortality was recorded for the larvae in each well; activity in the eight wells was then averaged. The results are indicated in the table entitled “Table ABC: Biological Results” (See Table Section).

CEW (Helicoverpa zea) = test: Bioassay on Corn Earworm (CEW), 128-well diet tray; assay type: in vivo; conditions: Helicoverpa zea, 168 h, percent mortality, second instar larvae, five to seven days; for pest or weed control at 0.5 µg/cm2: 0.5 μg/cm^2 on diet, read-out: Rating CEW (*Tested at 0.5 μg/cm^2); for pest or weed control at 50 µg/cm2: 50 μg/cm^2 on diet, read-out: Rating CEW
Method: as §1
Bioassays on CEW (Helicoverpa zea)
as §2

[1] = percent mortality, second instar larvae, 50 μg/cm^2 on diet, five to seven days

| Structure (SMILES) | pest or weed control at 50 µg/cm2 (BAW (Spodoptera exigua); [1]) | pest or weed control at 0.5 µg/cm2 (CEW (Helicoverpa zea)) | pest or weed control at 50 µg/cm2 (CEW (Helicoverpa zea)) | pest or weed control at 50 µg/cm2 (BAW (Spodoptera exigua)) |
| --- | --- | --- | --- | --- |
| O=C(/N=C(\S)Nc1ccccc1C1CC1)Nc1ccc(-c2ncn(-c3ccc(OC(F)(F)F)cc3)n2)cc1 [Molecule A63] | 50 to 100% | 50 to 100% |  |  |
| Cc1cc(C)c(N/C(=N\C(=O)Nc2ccc(-c3ncn(-c4ccc(OC(F)(F)F)cc4)n3)cc2)SCOC(=O)C(C)C)c(C)c1 [Molecule A59] | 50 to 100% |  | 50 to 100% |  |
| CC(C)c1ccccc1N/C(S)=N/C(=O)Nc1ccc(-c2ncn(-c3ccc(OC(F)(F)F)cc3)n2)cc1 [Molecule A48] | 50 to 100% |  | 50 to 100% |  |
| Cc1cc(C)cc(N/C(S)=N/C(=O)Nc2ccc(-c3ncn(-c4ccc(OC(F)(F)F)cc4)n3)cc2)c1 [Molecule A100] | 50 to 100% | 50 to 100% |  |  |
| CCc1cccc(C)c1N1C(=O)CS/C1=N\C(=O)Nc1ccc(-c2ncn(-c3ccc(OC(F)(F)F)cc3)n2)cc1 [Molecule A103] | 50 to 100% | 50 to 100% |  |  |
| COc1ccc(NC(NC(=O)Nc2ccc(-c3ncn(-c4ccc(OC(F)(F)F)cc4)n3)cc2)SCOC(=O)C(C)C)c(C)c1 (stereo not shown) [Molecule A56] | 50 to 100% |  | 50 to 100% |  |
| Cc1ccc(C(C)C)c(N2C(=O)CS/C2=N\C(=O)Nc2ccc(-c3ncn(-c4ccc(OC(F)(F)F)cc4)n3)cc2)c1 [Molecule A87] | 50 to 100% | 50 to 100% |  |  |
| Cc1cc(C)cc(N2C(=O)CS/C2=N\C(=O)Nc2ccc(-c3ncn(-c4ccc(OC(F)(F)F)cc4)n3)cc2)c1 [Molecule A104] |  | 50 to 100% |  |  |
| O=C(/N=C1\SCC(=O)N1c1ccc(Cl)cc1Cl)Nc1ccc(-c2ncn(-c3ccc(OC(F)(F)F)cc3)n2)cc1 [Molecule A92] | 50 to 100% | 50 to 100% |  |  |
| Cc1ccc(C(C)C)c(N/C(S)=N/C(=O)Nc2ccc(-c3ncn(-c4ccc(OC(F)(F)F)cc4)n3)cc2)c1 [Molecule A83] | 50 to 100% |  |  |  |
| Cc1cccc(N/C(S)=N/C(=O)Nc2ccc(-c3ncn(-c4ccc(OC(F)(F)F)cc4)n3)cc2)c1C [Molecule A71] | 50 to 100% |  |  |  |
| CC(C)C(=O)OCS/C(=N\C(=O)Nc1ccc(-c2ncn(-c3ccc(OC(F)(F)F)cc3)n2)cc1)Nc1ccccc1C(C)C [Molecule A5, (Z)—((N-(2-Isopropylphenyl)-N′-((4-(1-(4-(trifluoromethoxy)phenyl)-1H-1,2,4-triazol-3-yl)phenyl)carbamoyl)carbamimidoyl)thio)methyl isobutyrate] | 50 to 100% |  | 50 to 100% |  |
| CCc1ccccc1NC(=O)NC(=O)Nc1ccc(-c2ncn(-c3ccc(OC(F)(F)F)cc3)n2)cc1 [Molecule A52] | 50 to 100% |  | 50 to 100% |  |
| Cc1cc(C)c(N/C(S)=N/C(=O)Nc2ccc(-c3ncn(-c4ccc(OC(F)(F)F)cc4)n3)cc2)c(C)c1 [Molecule A49] | 50 to 100% |  | 50 to 100% |  |
| CC(C)c1ccccc1N1C(=O)CS/C1=N\C(=O)Nc1ccc(-c2nnc(-c3ccc(OC(F)(F)C(F)(F)F)cc3)o2)cc1 [Molecule A102, (Z)-1-(3-(2-isopropylphenyl)-4-oxothiazolidin-2-ylidene)-3-(4-(5-(4-(perfluoroethoxy)phenyl)-1,3,4-oxadiazol-2-yl)phenyl)urea] |  | 50 to 100% |  |  |
| COc1ccc(N/C(=N/C(=O)Nc2ccc(-c3ncn(-c4ccc(C(F)(F)F)cc4)n3)cc2)SC)c(C)c1 [Molecule A2, (Z)-Methyl N-(4-methoxy-2-methylphenyl)-N′-((4-(1-(4-(trifluoromethyl)phenyl)-1H-1,2,4-triazol-3-yl)phenyl)carbamoyl)carbamimidothioate] | 50 to 100% |  | 50 to 100% |  |
| CC(C)c1ccc(F)cc1N1C(=O)CS/C1=N\C(=O)Nc1ccc(-c2ncn(-c3ccc(OC(F)(F)F)cc3)n2)cc1 [Molecule A86] | 50 to 100% | 50 to 100% |  |  |
| CC(C)c1cccc(Cl)c1N/C(S)=N/C(=O)Nc1ccc(-c2ncn(-c3ccc(OC(F)(F)F)cc3)n2)cc1 [Molecule A81] | 50 to 100% |  | 50 to 100% |  |
| Cc1c(F)cccc1N/C(S)=N/C(=O)Nc1ccc(-c2ncn(-c3ccc(OC(F)(F)F)cc3)n2)cc1 [Molecule A79] | 50 to 100% | 50 to 100% |  |  |
| CC(C)c1ccccc1N1C(=O)CS/C1=N\C(=O)Nc1ccc(-c2ncn(-c3ccc(OC(F)(F)F)cc3)n2)cc1 [Molecule A19, (Z)-1-(3-(2-isopropylphenyl)-4-oxothiazolidin-2-ylidene)-3-(4-(1-(4-(trifluoromethoxy)phenyl)-1H-1,2,4-triazol-3-yl)phenyl)urea] | 50 to 100% |  | 50 to 100% |  |

| Structure (SMILES) | pest or weed control at 50 µg/cm2 (BAW (Spodoptera exigua); [1]) | pest or weed control at 0.5 µg/cm2 (CEW (Helicoverpa zea)) | pest or weed control at 50 µg/cm2 (CEW (Helicoverpa zea)) | pest or weed control at 50 µg/cm2 (BAW (Spodoptera exigua)) |
| --- | --- | --- | --- | --- |
| CC(C)c1ccccc1N/C(S)=N/C(=O)Nc1ccc(-c2nnc(-c3ccc(OC(F)(F)C(F)(F)F)cc3)o2)cc1 [Molecule A96, N-[[(2-isopropyllphenyl)amino]thioxomethyl]-N′-((4-(5-(4-(perfluoroethoxy)phenyl)-1,3,4-oxadiazol-2-yl)phenyl))urea] | 50 to 100% |  |  |  |
| COc1ccc(N/C(S)=N/C(=O)Nc2ccc(-c3ncn(-c4ccc(OC(F)(F)F)cc4)n3)cc2)c(C)c1 [Molecule A98] | 50 to 100% | 50 to 100% |  |  |
| Cc1ccccc1NC(=O)NC(=O)Nc1ccc(-c2ncn(-c3ccc(OC(F)(F)F)cc3)n2)cc1 [Molecule A51] | 50 to 100% |  | 50 to 100% |  |
| Cc1cccc(N/C(S)=N/C(=O)Nc2ccc(-c3ncn(-c4ccc(OC(F)(F)F)cc4)n3)cc2)c1C(C)C [Molecule A106] | 50 to 100% | 50 to 100% |  |  |
| Cc1cccc(Cl)c1N/C(S)=N/C(=O)Nc1ccc(-c2ncn(-c3ccc(OC(F)(F)F)cc3)n2)cc1 [Molecule A70] | 50 to 100% | 50 to 100% |  |  |
| CC(C)c1cc(F)ccc1N1C(=O)CS/C1=N\C(=O)Nc1ccc(-c2ncn(-c3ccc(OC(F)(F)F)cc3)n2)cc1 [Molecule A117] | 50 to 100% | 50 to 100% |  |  |
| CCCc1ccccc1N/C(S)=N/C(=O)Nc1ccc(-c2ncn(-c3ccc(OC(F)(F)F)cc3)n2)cc1 [Molecule A64] | 50 to 100% | 50 to 100% |  |  |
| CC(C)c1ccccc1N/C(S)=C(\C#N)C(=O)Nc1ccc(-c2ncn(-c3ccc(OC(F)(F)F)cc3)n2)cc1 [Molecule A25, (Z)-2-cyano-3-((2-isopropylphenyl)amino)-3-mercapto-N-(4-(1-(4-(trifluoromethoxy)phenyl)-1H-1,2,4-triazol-3-yl)phenyl)acrylamide] |  |  | 0 to 50% |  |
| COc1cc(C)c(N/C(S)=N/C(=O)Nc2ccc(-c3ncn(-c4ccc(OC(F)(F)F)cc4)n3)cc2)c(C)c1 [Molecule A50] | 50 to 100% |  | 50 to 100% |  |
| CC(=O)/C(C(=O)Nc1ccc(-c2ncn(-c3ccc(OC(F)(F)F)cc3)n2)cc1)=C(/S)Nc1ccccc1C(C)C [Molecule A20, (E)-3-hydroxy-2-((2-isopropylphenyl)carbamothioyl)-N-(4-(1-(4-(trifluoromethoxy)phenyl)-1H-1,2,4-triazol-3-yl)phenyl)but-2-enamide] | 50 to 100% |  | 50 to 100% |  |
| Cc1cccc(C)c1N/C(S)=C(\C#N)C(=O)Nc1ccc(-c2ncn(-c3ccc(OC(F)(F)F)cc3)n2)cc1 [Molecule A28, (Z)-2-Cyano-3-mercapto-3-((2,6-dimethylphenyl)amino)-N-(4-(1-(4-(trifluoromethoxy)phenyl)-1H-1,2,4-triazol-3-yl)phenyl)acrylamide] |  |  | 50 to 100% |  |
| Cc1ccc(N/C(S)=N/C(=O)Nc2ccc(-c3ncn(-c4ccc(OC(F)(F)F)cc4)n3)cc2)c(C(C)C)c1 [Molecule A84] | 50 to 100% | 50 to 100% |  |  |
| CC(C)c1ccccc1N/C(S)=N/C(=O)Nc1ccc(-c2ncn(-c3ccc(C(F)(F)C(F)(F)C(F)(F)F)cc3)n2)cc1 [Molecule A113] |  |  |  | 50 to 100% |
| CC(C)(C)c1ccccc1N1C(=O)CS/C1=N\C(=O)Nc1ccc(-c2ncn(-c3ccc(OC(F)(F)F)cc3)n2)cc1 [Molecule A95] |  | 50 to 100% |  |  |
| CC(C)c1ccccc1N/C(S)=N/C(=O)Nc1ccc(-c2ncn(-c3ccc(OC(F)(F)C(F)(F)F)cc3)n2)cc1 [Molecule A112] | 50 to 100% |  |  |  |
| N#C/C(C(=O)Nc1ccc(-c2ncn(-c3ccc(OC(F)(F)F)cc3)n2)cc1)=C(/S)Nc1ccccc1-c1ccccc1 [Molecule A27, (Z)-3-([1,1′-Biphenyl]-2-ylamino)-2-cyano-3-mercapto-N-(4-(1-(4-(trifluoromethoxy)phenyl)-1H-1,2,4-triazol-3-yl)phenyl)acrylamide] |  |  | 0 to 50% |  |
| Cc1cc(C)c(-n2c(C)cs/c2=N\C(=O)Nc2ccc(-c3ncn(-c4ccc(OC(F)(F)F)cc4)n3)cc2)c(C)c1 [Molecule A43, (Z)-1-(3-mesityl-4-methylthiazol-2(3H)-ylidene)-3-(4-(1-(4-(trifluoromethoxy)phenyl)-1H-1,2,4-triazol-3-yl)phenyl)urea] |  |  | 50 to 100% |  |
| O=C(/N=C1\SCC(=O)N1c1ccccc1C1CC1)Nc1ccc(-c2ncn(-c3ccc(OC(F)(F)F)cc3)n2)cc1 [Molecule A66] | 50 to 100% |  |  |  |
| Cc1cccc(C)c1-n1c(C)cs/c1=N\C(=O)Nc1ccc(-c2ncn(-c3ccc(OC(F)(F)F)cc3)n2)cc1 [Molecule A42] | 0 to 50% |  |  |  |
